The record followed here is patent US12539292B2, “BRM targeting compounds and associated methods of use” (Arvinas Operations, Inc., priority 2018, dated 2026).

The assay concerns the target T1, BRM (Homo sapiens, UniProt P51531).
T1 construct: In-Cell Western Screen of BRM Degradation in SW1573 Cells; endogenous in cells; host or cells: SW1573
Nature of the assay: In-cell Western screen of BRM degradation in SW1573 cells (Dmax and DC50). It is filed as cell-based. Summed up:
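SW1573 cells were treated overnight (18-20 hours) with compound at 0.1% final DMSO. They were then PFA-fixed, permeabilised with Triton X-100 and immunostained with 800 nm/680 nm secondary antibodies. BRM signal was quantified by LI-COR in-cell Western imaging to derive Dmax and DC50.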

The mark [1] stands for this setting: BRM degradation, SW1573 cells, read-out: DC50.
The mark [2] stands for this setting: BRM degradation, SW1573 cells, tested at the top concentration of between 0.3 and 10 μM, read-out: Dmax (%) (% degraded).
Setting [3] is: BRM degradation, SW1573 cells, Table 2D, read-out: *DC50.
The mark [4] stands for this setting: target protein degradation, read-out: BRM DC50.
[5] abbreviates: SW1573, % degraded, when tested at the top concentration of between 0.3 and 10 μM, read-out: BRM Dmax (%).
Where [6] appears, read: degradation of BRM, read-out: BRM DC50.

Each structure is given as a SMILES string. Like-named read-outs stand apart in the source and are kept apart here.

T1 sequence (P51531 whole entry): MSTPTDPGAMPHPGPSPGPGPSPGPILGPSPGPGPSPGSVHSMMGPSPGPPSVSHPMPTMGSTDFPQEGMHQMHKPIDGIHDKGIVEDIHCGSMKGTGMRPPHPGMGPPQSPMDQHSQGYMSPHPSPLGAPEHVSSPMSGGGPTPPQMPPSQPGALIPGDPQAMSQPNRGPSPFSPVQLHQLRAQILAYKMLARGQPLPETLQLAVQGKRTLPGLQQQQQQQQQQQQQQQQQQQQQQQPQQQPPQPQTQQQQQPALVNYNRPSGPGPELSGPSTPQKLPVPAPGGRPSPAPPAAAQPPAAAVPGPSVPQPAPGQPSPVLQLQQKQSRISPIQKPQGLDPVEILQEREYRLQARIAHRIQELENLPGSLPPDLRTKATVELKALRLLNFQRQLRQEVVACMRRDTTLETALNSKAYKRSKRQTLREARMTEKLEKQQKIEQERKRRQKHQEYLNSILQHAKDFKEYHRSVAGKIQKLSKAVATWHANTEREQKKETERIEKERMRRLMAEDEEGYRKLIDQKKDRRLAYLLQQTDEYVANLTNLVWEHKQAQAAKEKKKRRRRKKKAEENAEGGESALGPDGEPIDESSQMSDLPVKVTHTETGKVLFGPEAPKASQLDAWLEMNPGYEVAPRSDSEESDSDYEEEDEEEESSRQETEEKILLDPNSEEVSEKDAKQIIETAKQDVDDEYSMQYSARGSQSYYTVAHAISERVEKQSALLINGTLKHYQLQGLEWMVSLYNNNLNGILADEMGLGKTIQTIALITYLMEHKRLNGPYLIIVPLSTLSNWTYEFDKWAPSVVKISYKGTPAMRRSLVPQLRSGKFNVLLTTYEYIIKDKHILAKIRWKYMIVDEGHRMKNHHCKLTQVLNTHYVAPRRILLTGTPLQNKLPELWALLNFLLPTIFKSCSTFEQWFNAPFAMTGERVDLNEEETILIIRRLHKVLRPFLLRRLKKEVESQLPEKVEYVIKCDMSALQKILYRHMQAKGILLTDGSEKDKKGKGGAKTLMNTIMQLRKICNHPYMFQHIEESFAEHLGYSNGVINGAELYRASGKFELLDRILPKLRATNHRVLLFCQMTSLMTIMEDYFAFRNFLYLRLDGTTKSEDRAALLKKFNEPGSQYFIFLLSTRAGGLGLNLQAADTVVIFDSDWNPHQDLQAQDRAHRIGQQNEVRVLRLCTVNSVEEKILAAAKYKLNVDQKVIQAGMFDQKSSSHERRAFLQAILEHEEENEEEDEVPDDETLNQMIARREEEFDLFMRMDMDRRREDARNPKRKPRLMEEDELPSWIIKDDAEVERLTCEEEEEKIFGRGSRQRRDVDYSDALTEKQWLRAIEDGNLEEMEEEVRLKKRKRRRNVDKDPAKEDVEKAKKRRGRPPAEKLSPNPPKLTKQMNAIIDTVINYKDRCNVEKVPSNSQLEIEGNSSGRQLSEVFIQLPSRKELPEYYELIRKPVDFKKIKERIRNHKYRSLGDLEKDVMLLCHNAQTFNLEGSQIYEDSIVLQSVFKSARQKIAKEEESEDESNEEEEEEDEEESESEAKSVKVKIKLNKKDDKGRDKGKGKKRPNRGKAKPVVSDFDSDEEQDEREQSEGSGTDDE

On to `Cc1ncsc1-c1ccc([C@H](C)NC(=O)[C@@H]2C[C@@H](O)CN2C(=O)[C@@H](c2cc(N3CCC(CN4CCN(C[C@H]5C[C@H](Oc6cc(N7C8CCC7CN(c7cc(-c9ccccc9O)nnc7N)C8)ccn6)C5)C(C)C4C)CC3)no2)C(C)C)cc1` (stereo partly drawn) [compound 705, (2S,4R)-1-((2R)-2-(3-(4-((4-(((1r,3r)-3-((4-(3-(3-amino-6-(2-hydroxyphenyl)pyridazin-4-yl)-3,8-diazabicyclo[3.2.1]octan-8-yl)pyridin-2-yl)oxy)cyclobutyl)methyl)-2,3-dimethylpiperazin-1-yl)methyl)piperidin-1-yl)isoxazol-5-yl)-3-methylbutanoyl)-4-hydroxy-N-((S)-1-(4-(4-methylthiazol-5-yl)phenyl)ethyl)pyrrolidine-2-carboxamide], for which the DC50 (as a rule, the concentration at which degradation of the target reaches its halfway point) under setting [1] was less than 2.5 nM. Besides, for the setting “BRM degradation, SW1573 cells, read-out: Dmax (% degraded)”, the Dmax (usually the greatest extent of degradation seen) was more than 75%.
With `Cc1ncsc1-c1ccc([C@H](C)NC(=O)[C@@H]2C[C@@H](O)CN2C(=O)[C@@H](c2cc(OCC#Cc3ccc(O[C@H]4C[C@H](Oc5cc(N6C7CCC6CN(c6cc(-c8ccccc8O)nnc6N)C7)ccn5)C4)cn3)no2)C(C)C)cn1` [compound 237, (2S,4R)-1-((2R)-2-(3-((3-(5-((1r,3R)-3-((4-(3-(3-amino-6-(2-hydroxyphenyl)pyridazin-4-yl)-3,8-diazabicyclo[3.2.1]octan-8-yl)pyridin-2-yl)oxy)cyclobutoxy)pyridin-2-yl)prop-2-yn-1-yl)oxy)isoxazol-5-yl)-3-methylbutanoyl)-4-hydroxy-N-((S)-1-(6-(4-methylthiazol-5-yl)pyridin-3-yl)ethyl)pyrrolidine-2-carboxamide], the DC50 under setting [1] was less than 2.5 nM. For the same compound, under setting [2], the Dmax is more than 75%.
For `Cc1ncsc1-c1ccc(CNC(=O)[C@@H]2C[C@@H](O)CN2C(=O)[C@H](C(C)C)N2Cc3ccccc3C2=O)c(OCCOCCOCCOCCOCCn2cc(-c3cc(-c4ccccc4O)nnc3N)cn2)c1` [compound 13, (2S,4R)-N-(2-((14-(4-(3-amino-6-(2-hydroxyphenyl)pyridazin-4-yl)-1H-pyrazol-1-yl)-3,6,9,12-tetraoxatetradecyl)oxy)-4-(4-methylthiazol-5-yl)benzyl)-4-hydroxy-1-((S)-3-methyl-2-(1-oxoisoindolin-2-yl)butanoyl)pyrrolidine-2-carboxamide], the DC50 under setting [1] is more than 30 nM. Moreover, where the note is “BRM degradation, SW1573 cells, when tested at the top concentration of between 0.3 and 10 μM, read-out: Dmax (%) (% degraded)”, the Dmax is more than 75%.
For the compound `COCc1ncsc1-c1ccc([C@H](C)NC(=O)[C@@H]2C[C@@H](O)CN2C(=O)C(c2cc(OCCN3CCN(CCOc4cc(N5C6CCC5CN(c5cc(-c7ccccc7O)nnc5N)C6)ccn4)CC3)no2)C(C)C)cc1` (stereo partly drawn) [compound 169, (2S,4R)-1-(2-(3-(2-(4-(2-((4-(3-(3-amino-6-(2-hydroxyphenyl)pyridazin-4-yl)-3,8-diazabicyclo[3.2.1]octan-8-yl)pyridin-2-yl)oxy)ethyl)piperazin-1-yl)ethoxy)isoxazol-5-yl)-3-methylbutanoyl)-4-hydroxy-N-((S)-1-(4-(4-(methoxymethyl)thiazol-5-yl)phenyl)ethyl)pyrrolidine-2-carboxamide], the DC50 under setting [1] is less than 2.5 nM. Under setting [2], the Dmax is more than 75%.
For `Cc1ncsc1-c1cnc([C@H](C)NC(=O)[C@@H]2C[C@@H](O)CN2C(=O)[C@@H](c2cc(N3CCC(CN4CCC(O[C@H]5C[C@H](Oc6cc(N7C8CCC7CN(c7cc(-c9ccccc9O)nnc7N)C8)ccn6)C5)CC4)CC3)no2)C(C)C)cn1` [compound 590, (2S,4R)-1-((2R)-2-(3-(4-((4-((1r,3r)-3-((4-(3-(3-amino-6-(2-hydroxyphenyl)pyridazin-4-yl)-3,8-diazabicyclo[3.2.1]octan-8-yl)pyridin-2-yl)oxy)cyclobutoxy)piperidin-1-yl)methyl)piperidin-1-yl)isoxazol-5-yl)-3-methylbutanoyl)-4-hydroxy-N-((S)-1-(5-(4-methylthiazol-5-yl)pyrazin-2-yl)ethyl)pyrrolidine-2-carboxamide], under “BRM degradation, SW1573 cells, Table 2D, read-out: **Dmax (%) (% degraded)”, the greatest degradation seen (Dmax) was more than 75%. Moreover, the 50% degradation concentration (DC50) under setting [3] was less than 2.5 nM.
As to `Cc1ncsc1-c1ccc([C@H](C)NC(=O)[C@@H]2C[C@@H](O)CN2C(=O)[C@H](c2cc(OCCN3CCC(O[C@H]4C[C@H](Oc5nccc(N6C7CCC6CN(c6cc(-c8ccccc8O)nnc6N)C7)n5)C4)CC3)no2)C(C)C)cc1` [compound 463, (2S,4R)-1-((2S)-2-(3-(2-(4-((1r,3S)-3-((4-(3-(3-amino-6-(2-hydroxyphenyl)pyridazin-4-yl)-3,8-diazabicyclo[3.2.1]octan-8-yl)pyrimidin-2-yl)oxy)cyclobutoxy)piperidin-1-yl)ethoxy)isoxazol-5-yl)-3-methylbutanoyl)-4-hydroxy-N-((S)-1-(4-(4-methylthiazol-5-yl)phenyl)ethyl)pyrrolidine-2-carboxamide], the half-maximal degradation concentration (DC50) under setting [4] is more than 30 nM.
On to `Cc1ncsc1-c1ccc([C@H](C)NC(=O)[C@@H]2C[C@@H](O)CN2C(=O)[C@@H](c2cc(OCCC3(O)CCN(C[C@H]4C[C@H](Oc5cc(N6C7CCC6CN(c6cc(-c8ccccc8O)nnc6N)C7)ccn5)C4)CC3)no2)C(C)C)cc1` [compound 436, (2S,4R)-1-((2R)-2-(3-(2-(1-(((1r,3R)-3-((4-(3-(3-amino-6-(2-hydroxyphenyl)pyridazin-4-yl)-3,8-diazabicyclo[3.2.1]octan-8-yl)pyridin-2-yl)oxy)cyclobutyl)methyl)-4-hydroxypiperidin-4-yl)ethoxy)isoxazol-5-yl)-3-methylbutanoyl)-4-hydroxy-N-((S)-1-(4-(4-methylthiazol-5-yl)phenyl)ethyl)pyrrolidine-2-carboxamide], for which the Dmax under setting [5] is more than 75%. The DC50 under setting [6] is less than 2.5 nM.
As for `Cc1ncsc1-c1ccc([C@H](C)NC(=O)[C@@H]2C[C@@H](O)CN2C(=O)[C@H](c2cc(N3CCC(OC4CCN([C@H]5C[C@H](CN6CCOC7(CCN(c8cc(-c9ccccc9O)nnc8N)CC7)C6)C5)CC4)CC3)no2)C(C)C)cc1` [compound 615, (2S,4R)-1-((S)-2-(3-(4-((1-((1r,3S)-3-((9-(3-amino-6-(2-hydroxyphenyl)pyridazin-4-yl)-1-oxa-4,9-diazaspiro[5.5]undecan-4-yl)methyl)cyclobutyl)piperidin-4-yl)oxy)piperidin-1-yl)isoxazol-5-yl)-3-methylbutanoyl)-4-hydroxy-N-((S)-1-(4-(4-methylthiazol-5-yl)phenyl)ethyl)pyrrolidine-2-carboxamide], the DC50 under setting [3] was more than 30 nM.
As for `Cc1ncsc1-c1ccc([C@H](C)NC(=O)[C@@H]2C[C@@H](O)CN2C(=O)[C@@H](c2cc(OCCN3CCC(C(=O)N4CC(Oc5cc(N6C7CCC6CN(c6cc(-c8ccccc8O)nnc6N)C7)ccn5)C4)CC3)no2)C(C)C)cc1` [compound 405, (2S,4R)-1-((2R)-2-(3-(2-(4-(3-((4-(3-(3-amino-6-(2-hydroxyphenyl)pyridazin-4-yl)-3,8-diazabicyclo[3.2.1]octan-8-yl)pyridin-2-yl)oxy)azetidine-1-carbonyl)piperidin-1-yl)ethoxy)isoxazol-5-yl)-3-methylbutanoyl)-4-hydroxy-N-((S)-1-(4-(4-methylthiazol-5-yl)phenyl)ethyl)pyrrolidine-2-carboxamide], under setting [5], the Dmax is more than 75%. Besides, under setting [6], the DC50 is less than 2.5 nM.
On to `Cc1ncsc1-c1ccc([C@H](C)NC(=O)[C@@H]2C[C@@H](O)CN2C(=O)[C@H](c2cc(OCCCN3CCN(CCCOc4cc(N5C6CCC5CN(c5cc(-c7ccccc7O)nnc5N)C6)ccn4)CC3)no2)C(C)C)cc1` [compound 384, (2S,4R)-1-((2S)-2-(3-(3-(4-(3-((4-(3-(3-amino-6-(2-hydroxyphenyl)pyridazin-4-yl)-3,8-diazabicyclo[3.2.1]octan-8-yl)pyridin-2-yl)oxy)propyl)piperazin-1-yl)propoxy)isoxazol-5-yl)-3-methylbutanoyl)-4-hydroxy-N-((S)-1-(4-(4-methylthiazol-5-yl)phenyl)ethyl)pyrrolidine-2-carboxamide], for which, under setting [5], the Dmax was more than 75%. Besides, the DC50 under setting [4] fell in the range of 2.5 to 10 nM.
For `Cc1ncsc1-c1ccc([C@H](C)NC(=O)[C@@H]2C[C@@H](OP(=O)(O)O)CN2C(=O)[C@@H](c2cc(OCCN3CCC(O[C@H]4C[C@H](Oc5cc(N6C7CCC6CN(c6cc(-c8ccccc8O)nnc6N)C7)ccn5)C4)CC3)no2)C(C)C)cc1` [compound 459, (3R,5S)-1-((2R)-2-(3-(2-(4-((1r,3R)-3-((4-(3-(3-amino-6-(2-hydroxyphenyl)pyridazin-4-yl)-3,8-diazabicyclo[3.2.1]octan-8-yl)pyridin-2-yl)oxy)cyclobutoxy)piperidin-1-yl)ethoxy)isoxazol-5-yl)-3-methylbutanoyl)-5-(((S)-1-(4-(4-methylthiazol-5-yl)phenyl)ethyl)carbamoyl)pyrrolidin-3-yl dihydrogen phosphate], the Dmax under setting [5] is more than 75%. Besides, the DC50 under setting [4] is less than 2.5 nM.
For the compound `Cc1ncsc1-c1ccc([C@@H](NC(=O)[C@@H]2C[C@@H](O)CN2C(=O)[C@H](c2cc(OCCN3CCN(CCOc4cc(N5C6CCC5CN(c5cc(-c7ccccc7O)nnc5N)C6)ccn4)CC3)no2)C(C)C)C(=O)N(C)C)cc1` [compound 171, (2S,4R)-1-((2S)-2-(3-(2-(4-(2-((4-(3-(3-amino-6-(2-hydroxyphenyl)pyridazin-4-yl)-3,8-diazabicyclo[3.2.1]octan-8-yl)pyridin-2-yl)oxy)ethyl)piperazin-1-yl)ethoxy)isoxazol-5-yl)-3-methylbutanoyl)-N-((R)-2-(dimethylamino)-1-(4-(4-methylthiazol-5-yl)phenyl)-2-oxoethyl)-4-hydroxypyrrolidine-2-carboxamide], under setting [1], the DC50 is more than 30 nM. In addition, the Dmax under setting [2] fell in the range of 50 to 75%.
